Here are results for 22 compounds from patent US20160002204A1 (Board of Regents, The University of Texas System, priority 2014, published 2016).

One test concerns A549 cells. Description: A549 proliferation (viability) assay, Cell Titer Fluor, 72 hours. It is filed as cell-based. The conditions noted are these: Homo sapiens. Put shortly:
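Fluorescence read-out (Cell Titer Fluor, 30 min at 37 °C after reagent) after 72 h compound exposure of A549 cells; EC50 by four-parameter logistic curve fit. Cells: 1000/well, RPMI 1640 + 10% dialyzed FBS, 0.5% DMSO final.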

For test [1], the target named is T1, GLS1 (purified recombinant human GAC) (Homo sapiens, UniProt O94925).
T1 sequence (O94925 55-598 isoform O94925-3 limits assumed): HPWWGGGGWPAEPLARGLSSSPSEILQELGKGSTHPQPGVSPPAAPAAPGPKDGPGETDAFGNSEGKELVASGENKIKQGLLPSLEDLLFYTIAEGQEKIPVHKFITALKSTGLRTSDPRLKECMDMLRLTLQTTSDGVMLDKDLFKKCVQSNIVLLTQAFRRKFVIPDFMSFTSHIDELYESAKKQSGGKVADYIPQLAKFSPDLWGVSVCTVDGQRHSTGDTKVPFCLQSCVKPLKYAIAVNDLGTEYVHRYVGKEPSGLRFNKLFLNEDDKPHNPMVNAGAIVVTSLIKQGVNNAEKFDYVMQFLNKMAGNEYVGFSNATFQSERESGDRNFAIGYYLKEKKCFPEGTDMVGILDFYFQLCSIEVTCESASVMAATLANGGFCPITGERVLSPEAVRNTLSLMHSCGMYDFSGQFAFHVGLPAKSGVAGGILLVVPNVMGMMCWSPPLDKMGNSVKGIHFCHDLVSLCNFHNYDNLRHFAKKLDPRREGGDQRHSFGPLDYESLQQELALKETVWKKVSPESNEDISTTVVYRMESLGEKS
Description: GLS1 enzymatic activity assay (dual-coupled, Amplex UltraRed/resorufin). It is filed as biochemical. The method, boiled down: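 Recombinant human GAC (2 nM) preincubated with 50 mM potassium phosphate, then inhibitor (10 min each, RT); 1 mM glutamine, pH 7.4 Hepes buffer, 1% DMSO. Glutamate coupled via glutamate oxidase/HRP to resorufin (Ex 530/Em 590), kinetic or 20-min endpoint; IC50 by four-parameter logistic fit.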

In the case of `COCCNC(=O)c1nnc(CCCCn2ccc(NC(=O)CC3CCCCC3)cc2=O)s1` [Example 451, 5-{4-[4-(2-cyclohexylacetamido)-2-oxo-1,2-dihydropyridin-1-yl]butyl)-N-(2-methoxyethyl)-1,3,4-thiadiazole-2-carboxamide], the EC50 in the test on A549 cells lay in the range of 100 to 500 nM. For the same compound, the IC50 in test [1] was below 100 nM.

Take `Nc1nnc(CCCCn2ccc(NC(=O)Cc3ccccc3)nc2=O)s1` [Example 72, N-{1-[4-(5-amino-1,3,4-thiadiazol-2-yl)butyl]-2-oxo-1,2-dihydropyrimidin-4-yl}-2-phenylacetamide]: the EC50 in the test on A549 cells is above 5000 nM. In addition, the IC50 in test [1] lay in the range of 500 to 5000 nM.

`CC(C)NC(=O)Nc1ccn(CCCCc2ccc(NC(=O)Cc3ccccc3)nn2)c(=O)n1` [Example 87, N-{6-[4-(2-oxo-4-{[(propan-2-yl)carbamoyl]amino}-1,2-dihydropyrimidin-1-yl)butyl]pyridazin-3-yl}-2-phenylacetamide]: in the test on A549 cells, the EC50 is above 5000 nM. Besides, in test [1], the IC50 lay within 500 to 5000 nM.

`O=C(Cc1cccc(OC(F)(F)F)c1)Nc1ccc(CCCCn2ccc(NC(=O)Cc3ccccn3)nc2=O)nn1` [Example 118, N-[6-(4-{2-oxo-4-[2-(pyridin-2-yl)acetamido]-1,2-dihydropyrimidin-1-yl}butyl)pyridazin-3-yl]-2-[3-(trifluoromethoxy)phenyl]acetamide] yielded an EC50 in the test on A549 cells below 100 nM. Further, the IC50 in test [1] was below 100 nM.

In the test on A549 cells, `CC(C)CNC(=O)c1ccn(CCCCn2cc(C(=O)NCc3cccc(OC(F)(F)F)c3)nn2)c(=O)c1` [Example 62, N-(2-methylpropyl)-2-oxo-1-{4-[4-({[3-(trifluoromethoxy)phenyl]methyl}carbamoyl)-1H-1,2,3-triazol-1-yl]butyl}-1,2-dihydropyridine-4-carboxamide] displayed an EC50 of 500 to 5000 nM. The IC50 in test [1] was in the range of 100 to 500 nM.

As to `O=C(Cc1ccccn1)Nc1ccn(CCCCc2nnc(C(=O)NCc3cc(OC(F)(F)F)ccc3F)s2)c(=O)c1` [Example 461, N-{[2-fluoro-5-(trifluoromethoxy)phenyl]methyl}-5-(4-{2-oxo-4-[2-(pyridin-2-yl)acetamido]-1,2-dihydropyridin-1-yl}butyl)-1,3,4-thiadiazole-2-carboxamide], in the test with A549 cells, the EC50 is 500 to 5000 nM. Besides, the IC50 in test [1] is below 100 nM.

Take `O=C(CN1CCS(=O)(=O)CC1)Nc1ccn(CCC(F)Cn2cc(C(=O)NCc3cccc(OC(F)(F)F)c3)nn2)c(=O)c1` (centres unmarked) [Example 231, 1-(4-{4-[2-(1,1-dioxo-1$l^6,4-thiomorpholin-4-yl)acetamido]-2-oxo-1,2-dihydropyridin-1-yl}-2-fluorobutyl)-N-{[3-(trifluoromethoxy)phenyl]methyl}-1H-1,2,3-triazole-4-carboxamide]: the EC50 in the test with A549 cells was above 5000 nM. Also, the IC50 in test [1] lay within 100 to 500 nM.

`O=C(Cc1ccccc1)Nc1ccn(CCC(F)Cn2cc(C(=O)NCc3cc(Cl)ccc3F)nn2)c(=O)c1F` (centres unmarked) [Example 392, N-[(5-chloro-2-fluorophenyl)methyl]-1-{2-fluoro-4-[3-fluoro-2-oxo-4-(2-phenylacetamido)-1,2-dihydropyridin-1-yl]butyl}-1H-1,2,3-triazole-4-carboxamide] had an EC50 in the test on A549 cells below 100 nM. Moreover, in test [1], the IC50 was below 100 nM.

Take `Cc1ccc(CNC(=O)c2cn(CC(F)CCn3ccc(NC(=O)CC4CCCO4)cc3=O)nn2)cn1` (centres unmarked) [Example 200, 1-(2-fluoro-4-{2-oxo-4-[2-(oxolan-2-yl)acetamido]-1,2-dihydropyridin-1-yl}butyl)-N-[(6-methylpyridin-3-yl)methyl]-1H-1,2,3-triazole-4-carboxamide]: the EC50 in the test with A549 cells was 500 to 5000 nM. The IC50 in test [1] was 100 to 500 nM.

For the compound `CC(C)C(=O)Nc1ccn(CCCCn2cc(C(=O)NCc3cccc(OC(F)(F)F)c3)nn2)c(=O)c1` [Example 54, 1-{4-[4-(2-methylpropanamido)-2-oxo-1,2-dihydropyridin-1-yl]butyl}-N-{[3-(trifluoromethoxy)phenyl]methyl}-1H-1,2,3-triazole-4-carboxamide], the EC50 in the test on A549 cells is 500 to 5000 nM. Moreover, the IC50 in test [1] was in the range of 100 to 500 nM.

The compound `O=C(Cc1ccccc1)Nc1ccn(CCCCc2nnc(NC(=O)Cc3ccccn3)s2)c(=O)c1` [Example 1, N-(2-oxo-1-(4-(5-(2-(pyridin-2-yl)acetamido)-1,3,4-thiadiazol-2-yl)butyl)-1,2-dihydropyridin-4-yl)-2-phenylacetamide] came in with an EC50 with A549 cells of 500 to 5000 nM. In test [1], the IC50 is below 100 nM.

`O=C(Cc1ccccc1)Nc1nnc(CCCCn2ccc(NC(=O)[C@@H](O)c3ccccc3)nc2=O)s1` [Example 83, (2S)-2-hydroxy-N-(2-oxo-1-{4-[5-(2-phenylacetamido)-1,3,4-thiadiazol-2-yl]butyl}-1,2-dihydropyrimidin-4-yl)-2-phenylacetamide] showed an EC50 with A549 cells above 5000 nM. The IC50 in test [1] was below 100 nM.

On to `O=C(Cn1ccccc1=O)Nc1ccn(CCCCn2cc(C(=O)NCc3cccc(C(F)(F)F)c3)nn2)c(=O)c1` [Example 157, 1-(4-{2-oxo-4-[2-(2-oxo-1,2-dihydropyridin-1-yl)acetamido]-1,2-dihydropyridin-1-yl}butyl)-N-{[3-(trifluoromethyl)phenyl]methyl}-1H-1,2,3-triazole-4-carboxamide], for which the EC50 with A549 cells was above 5000 nM. The IC50 in test [1] is 500 to 5000 nM.

On to `O=C(Cc1ccccc1)Nc1ccn(CCC(F)Cn2cc(C(=O)NCc3cncc(C(F)(F)F)c3)nn2)c(=O)c1F` (centres unmarked) [Example 348, 1-{2-fluoro-4-[3-fluoro-2-oxo-4-(2-phenylacetamido)-1,2-dihydropyridin-1-yl]butyl}-N-{[5-(trifluoromethyl)pyridin-3-yl]methyl}-1H-1,2,3-triazole-4-carboxamide], for which the EC50 with A549 cells was below 100 nM. For the same compound, the IC50 in test [1] was below 100 nM.

On to `O=C(Cc1cccc(OC(F)(F)F)c1)Nc1ccc(CCCCn2ccc(NC(=O)[C@H](O)c3ccccc3)nc2=O)nn1` [Example 101, (2R)-2-hydroxy-N-{2-oxo-1-[4-(6-{2-[3-(trifluoro-methoxy)phenyl]acetamido}pyridazin-3-yl)butyl]-1,2-dihydropyrimidin-4-yl}-2-phenylacetamide], for which the EC50 in the test with A549 cells lay in the range of 100 to 500 nM. For the same compound, the IC50 in test [1] was below 100 nM.

Regarding `O=C(Nc1ccn(CCCCn2cc(C(=O)NCc3cccc(OC(F)(F)F)c3)nn2)c(=O)c1)OC1CCCCC1` [Example 44, cyclohexyl N-(2-oxo-1-{4-[4-({[3-(trifluoromethoxy)phenyl]methyl}carbamoyl)-1H-1,2,3-triazol-1-yl]butyl}-1,2-dihydropyridin-4-yl)carbamate], the EC50 in the test on A549 cells is below 100 nM. The IC50 in test [1] was below 100 nM.

Regarding `O=C(Nc1ccn(CCC(F)Cn2cc(C(=O)NCc3cccc(C(F)(F)F)n3)nn2)c(=O)c1F)OC1CCC1` (centres unmarked) [Example 397, cyclobutyl N-(3-fluoro-1-{3-fluoro-4-[4-({[6-(trifluoromethyl)pyridin-2-yl]methyl}carbamoyl)-1H-1,2,3-triazol-1-yl]butyl}-2-oxo-1,2-dihydropyridin-4-yl)carbamate], the EC50 in the test on A549 cells fell in the range of 100 to 500 nM. Besides, in test [1], the IC50 is 100 to 500 nM.

Regarding `O=C(CC1CCCC1)Nc1ccn(CCC(F)Cn2cc(C(=O)NCc3ccccn3)nn2)c(=O)c1F` (centres unmarked) [Example 393, 1-{4-[4-(2-cyclopentylacetamido)-3-fluoro-2-oxo-1,2-dihydropyridin-1-yl]-2-fluorobutyl}-N-(pyridin-2-ylmethyl)-1H-1,2,3-triazole-4-carboxamide], the EC50 in the test with A549 cells is below 100 nM. For the same compound, the IC50 in test [1] is below 100 nM.

Turning to `CC(C)(C)OC(=O)N1CCC(CC(=O)Nc2ccn(CCC(F)Cn3cc(C(=O)NCc4cccc(OC(F)(F)F)c4)nn3)c(=O)c2)C1` (centres unmarked) [Example 221, tert-butyl 3-{[(1-{3-fluoro-4-[4-({[3-(trifluoromethoxy)phenyl]methyl}carbamoyl)-1H-1,2,3-triazol-1-yl]butyl}-2-oxo-1,2-dihydropyridin-4-yl)carbamoyl]methyl}pyrrolidine-1-carboxylate], the EC50 in the test on A549 cells is below 100 nM. For the same compound, the IC50 in test [1] was below 100 nM.

With `O=C(CC1CCCC1)Nc1ccn(CCC(F)Cn2cc(C(=O)NCc3cncc(C(F)(F)F)c3)nn2)c(=O)c1F` (centres unmarked) [Example 360, 1-{4-[4-(2-cyclopentylacetamido)-3-fluoro-2-oxo-1,2-dihydropyridin-1-yl]-2-fluorobutyl}-N-{[5-(trifluoromethyl)pyridin-3-yl]methyl}-1H-1,2,3-triazole-4-carboxamide], in the test on A549 cells, the concentration giving a half-maximal response (EC50) is below 100 nM. The IC50 in test [1] was below 100 nM.

The compound `O=C(Cc1ccccc1)Nc1ccn(CCCCc2nnc(NC(=O)Cc3ccccc3)s2)c(=O)c1` [Example 31, N-(2-oxo-1-{4-[5-(2-phenylacetamido)-1,3,4-thiadiazol-2-yl]butyl}-1,2-dihydropyridin-4-yl)-2-phenylacetamide] had an EC50 with A549 cells of 500 to 5000 nM. For the same compound, in test [1], the IC50 is below 100 nM.

As to `O=C(CC1CCCC1)Nc1ccn(CCC(F)Cn2cc(C(=O)NCc3cccc(C(F)(F)F)n3)nn2)c(=O)c1F` (centres unmarked) [Example 318, 1-{4-[4-(2-cyclopentylacetamido)-3-fluoro-2-oxo-1,2-dihydropyridin-1-yl]-2-fluorobutyl}-N-{[6-(trifluoromethyl)pyridin-2-yl]methyl}-1H-1,2,3-triazole-4-carboxamide], the EC50 in the test on A549 cells is below 100 nM. Moreover, in test [1], the IC50 is below 100 nM.

In general, EC50 refers to the concentration giving half of the maximal effect. A high value points to a need for much substance. Broadly, the IC50 is the point on the concentration scale where inhibition reaches its midpoint.
